#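 Step 1: Grow cells in 96-well plates. Step 2: Expose to compound for 48 hours at 5 concentrations. Step 3: Interpolate endpoints linearly; if unreached, use highest concentration. GI50 marks 50% less growth. TGI: concentration producing complete growth inhibition.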
# Legend:
# Experiment in all cases: growth of human tumour cells (NCI), 48 h
# [1] = system: HOP-62 NSCLC
# [2] = system: UO-31 renal
# [3] = system: NCI-H460 lung
# [4] = system: CCRF-CEM leukemia
# [5] = system: SR leukemia
# [6] = system: MDA-MB-231 breast
# [7] = system: BT-549 breast
# [8] = system: 786-0 renal
# [9] = system: SK-MEL-5 melanoma
# [10] = system: U251 CNS
# [11] = system: KM12 colon
# [12] = system: COLO 205 colon
# [13] = system: UACC-257 melanoma
# [14] = system: SK-MEL-2 melanoma
# [15] = system: HOP-92 NSCLC
# [16] = system: NCI/ADR-RES ovarian
# [17] = system: NCI-H522 lung
# [18] = system: HCC-2998 colon
# [19] = system: RPMI-8226 leukemia
# [20] = system: SF-539 CNS
# [21] = system: MDA-MB-435
# [22] = system: HCT-15 colon
# [23] = system: NCI-H23 lung
# [24] = system: SK-MEL-28 melanoma
# [25] = system: A549 NSCLC
# [26] = system: M14 melanoma
# [27] = system: PC-3 prostate
# [28] = system: UACC-62 melanoma
# [29] = system: HL-60(TB) leukemia
# [30] = system: SN12C renal
# [31] = system: MALME-3M melanoma
# [32] = system: RXF 393 renal
# [33] = system: OVCAR-8 ovarian
# [34] = system: MOLT-4 leukemia
# [35] = system: NCI-H226 lung
# [36] = system: SW-620 colon
# [37] = system: IGROV1 ovarian
# [38] = system: T-47D breast
# [39] = system: SNB-19 CNS
# [40] = system: HT29 colon
# [41] = system: HS 578T breast
# [42] = system: TK-10 renal
# [43] = system: HCT-116 colon
# [44] = system: MCF7 breast
# [45] = system: ACHN renal
# [46] = system: CAKI-1 renal
# [47] = system: OVCAR-4 ovarian
# [48] = system: OVCAR-3 ovarian
# [49] = system: DU-145 prostate
# [50] = system: SK-OV-3 ovarian
# [51] = system: SF-268 CNS
# [52] = system: EKVX NSCLC
# [53] = system: OVCAR-5 ovarian
# [54] = system: LOX IMVI melanoma
# [55] = system: SF-295 CNS
# [56] = system: A498 renal
compound,measurement,setting,value
C=C1C(=O)O[C@H]2[C@H]1CC/C(CNS(=O)(=O)c1cccc3ccccc13)=C\CC[C@@]1(C)O[C@@H]21,GI50,[1],13.4 µM
same,TGI,[1],27.9 µM
same,GI50,[2],1.45 µM
same,TGI,[2],2.94 µM
same,GI50,[3],4.28 µM
same,TGI,[3],17 µM
same,GI50,[4],0.624 µM
same,TGI,[4],3.82 µM
same,GI50,[5],1.31 µM
same,TGI,[5],6.11 µM
same,GI50,[6],1.53 µM
same,TGI,[6],3.4 µM
same,GI50,[7],1.56 µM
same,TGI,[7],3.1 µM
same,GI50,[8],1.61 µM
same,TGI,[8],3.27 µM
same,GI50,[9],1.95 µM
same,TGI,[9],3.98 µM
same,GI50,[10],3.67 µM
same,TGI,[10],15.3 µM
same,GI50,[11],9.76 µM
same,TGI,[11],25.8 µM
same,GI50,[12],1.73 µM
same,TGI,[12],3.49 µM
same,GI50,[13],1.64 µM
same,TGI,[13],3.89 µM
same,GI50,[14],5.18 µM
same,TGI,[14],18.3 µM
same,GI50,[15],1.11 µM
same,TGI,[15],2.8 µM
same,GI50,[16],5.08 µM
same,TGI,[16],20.6 µM
same,GI50,[17],1.28 µM
same,TGI,[17],2.88 µM
same,GI50,[18],2.16 µM
same,TGI,[18],4.87 µM
same,GI50,[19],1.58 µM
same,TGI,[19],4.43 µM
same,GI50,[20],1.77 µM
same,TGI,[20],4.02 µM
same,GI50,[21],1.6 µM
same,TGI,[21],3.42 µM
same,GI50,[22],1.25 µM
same,TGI,[22],2.7 µM
same,GI50,[23],2.48 µM
same,TGI,[23],9.12 µM
same,GI50,[24],1.97 µM
same,TGI,[24],4.24 µM
same,GI50,[25],11.5 µM
same,TGI,[25],32.4 µM
same,GI50,[26],1.53 µM
same,TGI,[26],3.32 µM
same,GI50,[27],1.91 µM
same,TGI,[27],4.51 µM
same,GI50,[28],1.67 µM
same,TGI,[28],4.5 µM
same,GI50,[29],1.21 µM
same,TGI,[29],3.76 µM
same,GI50,[30],2.12 µM
same,TGI,[30],7.74 µM
same,GI50,[31],1.77 µM
same,TGI,[31],4.09 µM
same,GI50,[32],1.26 µM
same,TGI,[32],2.87 µM
same,GI50,[33],2.52 µM
same,TGI,[33],9.16 µM
same,GI50,[34],1.87 µM
same,TGI,[34],5.27 µM
same,GI50,[35],13.2 µM
same,TGI,[35],33 µM
same,GI50,[36],0.713 µM
same,TGI,[36],2.26 µM
same,GI50,[37],1.38 µM
same,TGI,[37],3.4 µM
same,GI50,[38],1.96 µM
same,TGI,[38],6.51 µM
same,GI50,[39],5.44 µM
same,TGI,[39],19.8 µM
same,GI50,[40],1.85 µM
same,TGI,[40],3.86 µM
same,GI50,[41],3.46 µM
same,TGI,[41],18.4 µM
same,GI50,[42],1.48 µM
same,TGI,[42],3.08 µM
same,GI50,[43],1.08 µM
same,TGI,[43],2.3 µM
same,GI50,[44],1.36 µM
same,TGI,[44],3.14 µM
same,GI50,[45],1.19 µM
same,TGI,[45],2.56 µM
same,GI50,[46],1.12 µM
same,TGI,[46],2.56 µM
same,GI50,[47],1.72 µM
same,TGI,[47],3.68 µM
same,GI50,[48],1.16 µM
same,TGI,[48],2.48 µM
same,GI50,[49],1.11 µM
same,TGI,[49],2.43 µM
same,GI50,[50],12.1 µM
same,TGI,[50],24.5 µM
same,GI50,[51],3.74 µM
same,TGI,[51],15.1 µM
same,GI50,[52],2.53 µM
same,TGI,[52],10.3 µM
same,GI50,[53],2.84 µM
same,TGI,[53],8.44 µM
same,GI50,[54],1.45 µM
same,TGI,[54],2.93 µM
same,GI50,[55],5.49 µM
same,TGI,[55],19.2 µM
same,GI50,[56],4.85 µM
same,TGI,[56],17.2 µM

# Reference: PubChem BioAssay (NCI)
